Values quoted from earlier work, collected in publication PMC2637266, “Quantification of gamma-secretase modulation differentiates inhibitor compound selectivity between two substrates Notch and amyloid precursor protein” (Molecular Brain, 2008).

Tests used:
[1] = test system: γ-secretase substrates APP, ErbB-4, and Notch; design: method as in PMID 12777371; details: cited from earlier work
plasma Aβ40 = test system: plasma Aβ40; design: method as in PMID 18090456, PMID 16505324, PMID 18695053; details: AD patients; cited from earlier work

Row | SMILES | cleavage of γ-secretase substrates at the middle of transmembrane domain [1] | generation of intracellular domains (ICDs) of APP, ErbB-4, and Notch [1] | plasma Aβ40 (plasma Aβ40) | tolerability (plasma Aβ40)
1 | COc1ccc2c(c1)c(CC(=O)O)c(C)n2C(=O)c1ccc(Cl)cc1 [indomethacin] | specifically block the cleavage | without affecting the generation | – | –
2 | CC(C)[C@H](O)C(=O)N[C@@H](C)C(=O)N[C@@H]1C(=O)N(C)CCc2ccccc21.O.O [LY450139 dihydrate] | – | – | reduces plasma Aβ40 | well tolerated
3 | CC(C)Cc1ccc(C(C)C(=O)O)cc1 (stereo not shown) [ibuprofen] | – | without affecting the generation | – | –
4 | CSc1ccc(/C=C2/C(C)=C(CC(=O)O)c3cc(F)ccc32)cc1 [sulindac sulphide] | specifically block the cleavage | without affecting the generation | – | –
